Experimental data: PubChem BioAssay (NCI)
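Where inhibition never reached the appropriate level, the endpoint shown equals the highest concentration tested. Otherwise, values were interpolated linearly from a five-concentration, 48-hour dose response in 96-well plates. GI50 marks 50% less growth. TGI: total growth inhibition.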

Key:
Experiment in all cases: DTP human tumour cell line panel, 48 h
[1] = system: MCF7 breast
[2] = system: SNB-19 CNS
[3] = system: OVCAR-5 ovarian
[4] = system: UACC-257 melanoma
[5] = system: PC-3 prostate
[6] = system: HOP-92 NSCLC
[7] = system: KM12 colon
[8] = system: HCT-15 colon
[9] = system: NCI-H226 lung
[10] = system: DU-145 prostate
[11] = system: M14 melanoma
[12] = system: U251 CNS
[13] = system: SW-620 colon
[14] = system: EKVX NSCLC
[15] = system: HS 578T breast
[16] = system: UO-31 renal
[17] = system: OVCAR-4 ovarian
[18] = system: HT29 colon
[19] = system: NCI-H460 lung
[20] = system: A549 NSCLC
[21] = system: SK-OV-3 ovarian
[22] = system: LOX IMVI melanoma
[23] = system: HCC-2998 colon
[24] = system: K-562 leukemia
[25] = system: SK-MEL-5 melanoma
[26] = system: SF-539 CNS
[27] = system: NCI/ADR-RES ovarian
[28] = system: T-47D breast
[29] = system: SK-MEL-28 melanoma
[30] = system: UACC-62 melanoma
[31] = system: SF-295 CNS
[32] = system: OVCAR-8 ovarian
[33] = system: SK-MEL-2 melanoma
[34] = system: MDA-MB-435
[35] = system: HOP-62 NSCLC
[36] = system: SF-268 CNS
[37] = system: MOLT-4 leukemia
[38] = system: RPMI-8226 leukemia
[39] = system: NCI-H23 lung
[40] = system: RXF 393 renal
[41] = system: SR leukemia
[42] = system: COLO 205 colon
[43] = system: IGROV1 ovarian
[44] = system: CAKI-1 renal
[45] = system: A498 renal
[46] = system: NCI-H522 lung
[47] = system: MALME-3M melanoma
[48] = system: ACHN renal
[49] = system: MDA-MB-231 breast
[50] = system: SN12C renal
[51] = system: OVCAR-3 ovarian
[52] = system: TK-10 renal
[53] = system: HCT-116 colon
[54] = system: 786-0 renal
[55] = system: CCRF-CEM leukemia
[56] = system: SNB-75 CNS
[57] = system: HL-60(TB) leukemia
[58] = system: BT-549 breast

Molecule `Cn1ccnc1C(=O)/C=C/c1ccc(CC(=O)Nc2ccc(S(F)(F)(F)(F)F)cc2)cc1` has a GI50 [1] of 0.625 µM, a TGI [1] of 5.54 µM and a GI50 [2] of 2.23 µM. It also gave a TGI [2] of 4.82 µM, a GI50 [3] of 2.12 µM and a TGI [3] of 5.1 µM. For the same molecule, the GI50 [4] was 4.35 µM, the TGI [4] was 10.5 µM and the GI50 [5] was 0.534 µM. The TGI [5] was 2.03 µM, the GI50 [6] was 1.13 µM and the TGI [6] was 3.92 µM. It also gave a GI50 [7] of 2.04 µM, a TGI [7] of 4.7 µM and a GI50 [8] of 0.878 µM. For the same molecule, the TGI [8] was 11.7 µM, the GI50 [9] was 2.93 µM and the TGI [9] was 7.02 µM. The GI50 [10] was 2.25 µM, the TGI [10] was 4.53 µM and the GI50 [11] was 3.16 µM. It also gave a TGI [11] of 6.55 µM, a GI50 [12] of 0.898 µM and a TGI [12] of 3.07 µM. The GI50 [13] was 1.03 µM, the TGI [13] was 4.09 µM and the GI50 [14] was 2.84 µM. For the same molecule, the TGI [14] was 8.23 µM, the GI50 [15] was 4.91 µM and the TGI [15] was 16.4 µM. It also gave a GI50 [16] of 2.22 µM, a TGI [16] of 4.35 µM and a GI50 [17] of 2.35 µM. For the same molecule, the TGI [17] was 9.07 µM, the GI50 [18] was 3.25 µM and the TGI [18] was 7.2 µM. For the same molecule, the GI50 [19] was 2.25 µM, the TGI [19] was 7.58 µM and the GI50 [20] was 3.32 µM. For the same molecule, the TGI [20] was 9.15 µM, the GI50 [21] was 3.86 µM and the TGI [21] was 11.6 µM. It also gave a GI50 [22] of 1.19 µM, a TGI [22] of 3.34 µM and a GI50 [23] of 2.92 µM. It also gave a TGI [23] of 5.3 µM, a GI50 [24] of 0.549 µM and a TGI [24] of 16.7 µM. The GI50 [25] was 3.02 µM, the TGI [25] was 5.48 µM and the GI50 [26] was 1.02 µM. It also gave a TGI [26] of 3.26 µM, a GI50 [27] of 3.53 µM and a TGI [27] of 9.35 µM. The GI50 [28] was 3.1 µM, the TGI [28] was 10.4 µM and the GI50 [29] was 2.83 µM. It also gave a TGI [29] of 5.88 µM, a GI50 [30] of 2.89 µM and a TGI [30] of 5.87 µM. For the same molecule, the GI50 [31] was 2.16 µM, the TGI [31] was 4.73 µM and the GI50 [32] was 4.94 µM. For the same molecule, the TGI [32] was 16.5 µM, the GI50 [33] was 3.59 µM and the TGI [33] was 10 µM. For the same molecule, the GI50 [34] was 4.04 µM, the TGI [34] was 12.5 µM and the GI50 [35] was 2.58 µM. The TGI [35] was 6.18 µM, the GI50 [36] was 1.88 µM and the TGI [36] was 4.86 µM. The GI50 [37] was 0.578 µM, the TGI [37] was 1.51 µM and the GI50 [38] was 0.517 µM. For the same molecule, the TGI [38] was 2.03 µM, the GI50 [39] was 2.37 µM and the TGI [39] was 4.82 µM. The GI50 [40] was 2.67 µM, the TGI [40] was 5.21 µM and the GI50 [41] was 0.53 µM. For the same molecule, the TGI [41] was 1.86 µM, the GI50 [42] was 3.08 µM and the TGI [42] was 6.66 µM. It also gave a GI50 [43] of 2.62 µM, a TGI [43] of 7.29 µM and a GI50 [44] of 2.66 µM. The TGI [44] was 5.72 µM, the GI50 [45] was 3.12 µM and the TGI [45] was 6.14 µM. The GI50 [46] was 3.43 µM, the TGI [46] was 6.91 µM and the GI50 [47] was 2.95 µM. For the same molecule, the TGI [47] was 6.65 µM, the GI50 [48] was 2.45 µM and the TGI [48] was 4.82 µM. It also gave a GI50 [49] of 2.91 µM, a TGI [49] of 6.66 µM and a GI50 [50] of 2.93 µM. For the same molecule, the TGI [50] was 7.17 µM, the GI50 [51] was 2.18 µM and the TGI [51] was 4.91 µM. The GI50 [52] was 4.05 µM, the TGI [52] was 9.5 µM and the GI50 [53] was 0.823 µM. It also gave a TGI [53] of 2.87 µM, a GI50 [54] of 0.788 µM and a TGI [54] of 3 µM. It also gave a GI50 [55] of 0.538 µM, a TGI [55] of 16.7 µM and a GI50 [56] of 1.83 µM. For the same molecule, the TGI [56] was 3.88 µM, the GI50 [57] was 0.62 µM and the TGI [57] was 4.47 µM. For the same molecule, the GI50 [58] was 2.5 µM and the TGI [58] was 5.29 µM.
